For assay [1], the system named is T-Rex 293 cell line SC3 cells having increased expression of androgen receptor protein due to exposure to doxycycline. Description: Cellular growth inhibition, T-Rex 293 SC3 cells with doxycycline (androgen receptor induced), CellTiter-Glo. The class given is cell-based. The note with it: 72 h, T-Rex 293 SC3 cells with 10 ng/mL doxycycline (increased androgen receptor expression). The procedure: (§1) The following types of cells were prepared for this experiment: (i) a T-Rex 293 cell line having increased expression of androgen receptor protein due to exposure to doxycycline and (ii) a T-Rex 293 cell line lacking increased expression of androgen receptor protein. Ability of the test compounds to inhibit proliferation of the foregoing cell types was evaluated according to the procedures set forth below.
(§2) The doxycycline-inducible androgen receptor protein expressing cell line was established using the following protocol: T-Rex 293 cells were purchased from Invitrogen (Cat #R71007) and transfected using Lipofectamine 2000 with the wild-type androgen receptor protein sequence cloned into the pcDNA4/TO vector. Transfected cells were selected using 400 μg/mL Zeocin (Invitrogen Cat #R25001). Following selection, single clones were raised and maintained in Dulbecco's Modified Eagle Medium (DMEM) supplemented with 10% w/w Tetracycline-free fetal bovine serum (FBS) and 250 μg/mL Zeocin. Clones were analyzed for expression of androgen receptor protein in the presence and absence of 10 ng/mL doxycycline (Sigma Cat #D9891), and a single doxycycline-inducible clone (hereinafter “SC3”) was selected for use in downstream assays.
(§3) The SC3 cells were seeded on poly-D-lysine coated, black clear-bottom 384-well plates at 2500/well, in 25 μL Phenol Red Free Dulbecco's Modified Eagle Medium (DMEM) supplemented with 10% w/w charcoal-dextran treated fetal bovine serum (FBS) and 1% w/w pen-strep, with or without 10 ng/mL doxycycline. Pen-Strep is a commercially available mixture of penicillin G and streptomycin, which is used in mammalian cell culture media to prevent bacterial contamination. Phenol Red Free Dulbecco's Modified Eagle Medium (DMEM) supplemented with 10% w/w charcoal-dextran treated fetal bovine serum (FBS) and 1% w/w pen-strep, with or without 10 ng/mL doxycycline is herein referred to as Treatment Medium. Following seeding of cells in the plates, the plates were spun at 300×g for 30 seconds, then equilibrated to room temperature for 30 minutes, and then deposited in a humidified tissue culture incubator maintained at 37° C. with 5% CO2.
(§4) At 24 hours after seeding of the cells, dilutions of test compound were prepared in DMSO and dissolved in Treatment Medium, to achieve a final DMSO concentration of 0.5% w/w, thereby providing the Test Compound Solution. A 25 μL aliquot of the Test Compound Solution was added to cells in the well plates. An equal volume of a solution containing DMSO and Treatment Medium was used as a negative control. Following treatment of cells with Test Compound Solution or said equal volume of a solution containing DMSO and Treatment Medium, the plates were spun at 300×g for 30 seconds, and then left in an incubator for 72 hours. At the end of the treatment duration, cell viability was quantified with CellTiter-Glo 2.0 reagent (Promega Cat #G9243). For this purpose, plates were equilibrated to room temperature for 30 minutes, and then 25 μL of CellTiter-Glo 2.0 reagent was added to cells in the plate wells. Plates were then agitated on a shaker for two minutes at 500 rpm and subsequently incubated at room temperature for 10 minutes. Following incubation, the plates were spun at 3000×g for 30 seconds, then sealed with an optical adhesive cover, and luminescence readings were measured with an EnVision Plate Reader. Data was normalized using zero luminescence for baseline. A four-parameter non-linear regression curve fit was applied to dose-response data in GraphPad Prism data analysis software to determine the half-maximal growth inhibitory concentration (GI50) for each test compound.

Assay [2] concerns T-Rex 293 cell line SC3 cells lacking increased expression of androgen receptor protein. Description: Cellular growth inhibition, T-Rex 293 SC3 cells without doxycycline, CellTiter-Glo. Format: cell-based. The note with it: 72 h, T-Rex 293 SC3 cells not exposed to doxycycline, CellTiter-Glo 2.0. The procedure:
as §1, §2, §3, §4

The next assay relates to VCaP cells. Description: Cellular growth inhibition assay for VCaP cells, CellTiter-Glo. The class given is cell-based, human. Particulars: Homo sapiens, VCaP, 72 h, 72 hours treatment, CellTiter-Glo 2.0. An outline of the steps: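 GI50 values come from four-parameter curve fits of luminescence data normalized to a zero baseline. Compound, in medium with 0.5% DMSO, was added one day after plating and left for 72 h before CellTiter-Glo 2.0 addition.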

For the next assay, the system named is T47D cells. Briefly: Cellular growth inhibition assay for T47D cells, CellTiter-Glo. The class given is cell-based, human. The note with it: Homo sapiens, T47D, 72 h, 72 hours treatment, CellTiter-Glo 2.0 cell viability. In short, it runs like this: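 Growth inhibition as GI50, fitted with four parameters to CellTiter-Glo luminescence after 72 h of compound exposure (0.5% DMSO). Cells were T47D, grown in insulin-supplemented (0.2 units/mL) DMEM with 10% FBS and treated one day post-seeding.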

In the case of `Cc1sc2c(c1C)C(c1ccc(CCN3CC[C@]4(C3)CN(c3ncc(C(=O)N[C@H]5C(C)(C)[C@H](Oc6ccc(C#N)c(Cl)c6)C5(C)C)cn3)CCO4)cc1)=N[C@@H](Cc1ncco1)c1nnc(C)n1-2` [Compound I-242], the GI50 (in assay [1]; in assay [2]; in the assay on VCaP cells; in the assay on T47D cells) was less than 0.5 µM in each case.
On to `Cc1sc2c(c1C)C(c1ccc(OC3CC4(CCN(c5ccc(C(=O)N[C@H]6C(C)(C)[C@H](Oc7ccc(C#N)c(Cl)c7)C6(C)C)cn5)CC4)C3)cc1)=N[C@@H](Cc1ncco1)c1nnc(C)n1-2` [Compound I-170], for which the 50% growth inhibitory concentration (GI50) in assay [1] is less than 0.5 µM; in assay [2] it was more than 3 µM; in the assay with VCaP cells it was less than 0.5 µM; in the assay on T47D cells it was less than 0.5 µM.
On to `Cc1sc2c(c1C)C(c1ccc(N3CCN(c4ncc(C(=O)N[C@H]5C(C)(C)[C@H](Oc6ccc(C#N)c(Cl)c6)C5(C)C)cn4)CC(F)(F)C3)cc1)=NC(Cc1ncco1)c1nnc(C)n1-2` (some centres unmarked) [Compound I-670], for which the results for the GI50 (in assay [1]; in assay [2]; with VCaP cells) were less than 0.5 µM, more than 3 µM and less than 0.5 µM, respectively.
As to `Cc1sc2c(c1C)C(c1ccc(Cl)cc1)=NC(CC(=O)NCCOCCCCOC1CCN(c3ncc(C(=O)N[C@H]4C(C)(C)[C@H](Oc5ccc(C#N)c(Cl)c5)C4(C)C)cn3)CC1)c1nnc(C)n1-2` (some centres unmarked) [Compound I-30], the GI50 (in assay [1]; in assay [2]; in the assay on VCaP cells) was less than 0.5 µM throughout.
Consider `Cc1sc2c(c1C)C(c1ccc(Cl)cc1)=N[C@@H](CC(=O)NCCOCCCOC1CCN(c3ncc(C(=O)N[C@H]4C(C)(C)[C@H](Oc5ccc(C#N)c(Cl)c5)C4(C)C)cn3)CC1)c1nnc(C)n1-2` [Compound I-27], for which the values for the GI50 (in assay [1]; in assay [2]; in the assay on VCaP cells) were less than 0.5 µM, 0.5 to 1.5 µM and less than 0.5 µM, respectively.
Take `CCNC(=O)C[C@@H]1N=C(c2ccc(OCCCCCCOC3CCN(c4ncc(C(=O)N[C@H]5C(C)(C)[C@H](Oc6ccc(C#N)c(Cl)c6)C5(C)C)cn4)CC3)cc2)c2c(sc(C)c2C)-n2c(C)nnc21` [Compound I-63]: the GI50 in assay [1] is less than 0.5 µM; in assay [2] it was 0.5 to 1.5 µM; with VCaP cells, 1.5 to 3 µM.
For `Cc1sc2c(c1C)C(c1ccc(Cl)cc1)=N[C@@H](CC(=O)NCCCCCCOC1CCN(c3ncc(C(=O)N[C@H]4C(C)(C)[C@H](Oc5ccc(C#N)c(Cl)c5)C4(C)C)cn3)CC1)c1nnc(C)n1-2` [Compound I-23], the 50% growth inhibitory concentration (GI50) (in assay [1]; in assay [2]; with VCaP cells) was less than 0.5 µM each time.
As for `Cc1sc2c(c1C)C(c1ccc(-c3cn(C4CCN(c5ncc(C(=O)N[C@H]6C(C)(C)[C@H](Oc7ccc(C#N)c(Cl)c7)C6(C)C)cn5)CC4)cn3)cc1)=N[C@@H](Cc1ncco1)c1nnc(C)n1-2` [Compound I-484], the results for the concentration for 50% growth inhibition (GI50) (in assay [1]; in assay [2]; in the assay on VCaP cells) were less than 0.5 µM, 0.5 to 1.5 µM and 0.5 to 1.5 µM, respectively.
Consider `Cc1sc2c(c1C)C(c1ccc(Cl)cc1)=N[C@@H](CC(=O)NCCCCCCCCOC1CCN(c3ncc(C(=O)N[C@H]4C(C)(C)[C@H](Oc5ccc(C#N)c(Cl)c5)C4(C)C)cn3)CC1)c1nnc(C)n1-2` [Compound I-25], for which the 50% growth inhibitory concentration (GI50) in assay [1] is less than 0.5 µM; in assay [2] it was more than 3 µM; with VCaP cells, more than 3 µM.
As to `Cc1sc2c(c1C)C(c1ccc(Cl)cc1)=N[C@@H](CC(=O)NCCOCCCCCOC1CCN(c3ncc(C(=O)N[C@H]4C(C)(C)[C@H](Oc5ccc(C#N)c(Cl)c5)C4(C)C)cn3)CC1)c1nnc(C)n1-2` [Compound I-34], the GI50 (in assay [1]; in assay [2]; with VCaP cells) was less than 0.5 µM throughout.
`Cc1sc2c(c1C)C(c1ccc(Cl)cc1)=N[C@@H](CC(=O)NCCOCCOCCN(C)c1ncc(C(=O)N[C@H]3C(C)(C)[C@H](Oc4ccc(C#N)c(Cl)c4)C3(C)C)cn1)c1nnc(C)n1-2` [Compound I-2, N-[3-(3-chloro-4-cyano-phenoxy)-2,2,4,4-tetramethyl-cyclobutyl]-2-[2-[2-[2-[[2-[(9S)-7-(4-chlorophenyl)-4,5,13-trimethyl-3-thia-1,8,11,12-tetrazatricyclo[8.3.0.02,6]trideca-2(6),4,7,10,12-pentaen-9-yl]acetyl]amino]ethoxy]ethoxy]ethyl-methylamino]pyrimidine-5-carboxamide]: the concentration for 50% growth inhibition (GI50) in assay [1] was less than 0.5 µM; in assay [2], 1.5 to 3 µM; in the assay on VCaP cells, less than 0.5 µM.
Turning to `Cc1sc2c(c1C)C(c1ccc(Cl)cc1)=N[C@@H](CC(=O)NCCCCN1CCN(CC3CCN(c4ncc(C(=O)N[C@H]5C(C)(C)[C@H](Oc6ccc(C#N)c(Cl)c6)C5(C)C)cn4)CC3)CC1)c1nnc(C)n1-2` [Compound I-37, N-((1r,3r)-3-(3-chloro-4-cyanophenoxy)-2,2,4,4-tetramethylcyclobutyl)-2-(4-((4-(4-(2-((S)-4-(4-chlorophenyl)-2,3,9-trimethyl-6H-thieno[3,2-f][1,2,4]triazolo[4,3-a][1,4]diazepin-6-yl)acetamido)butyl)piperazin-1-yl)methyl)piperidin-1-yl)pyrimidine-5-carboxamide], the GI50 in assay [1] is less than 0.5 µM; in assay [2], 0.5 to 1.5 µM; with VCaP cells, less than 0.5 µM.
As for `Cc1sc2c(c1C)C(c1ccc(Cl)cc1)=N[C@@H](CC(=O)NCCCOCCCCOC1CCN(c3ncc(C(=O)N[C@H]4C(C)(C)[C@H](Oc5ccc(C#N)c(Cl)c5)C4(C)C)cn3)CC1)c1nnc(C)n1-2` [Compound I-33], the concentration for 50% growth inhibition (GI50) (in assay [1]; in assay [2]; in the assay with VCaP cells) was less than 0.5 µM each time.
For the compound `CCNC(=O)C[C@@H]1N=C(c2ccc(CCCCCCCOC3CCN(c4ncc(C(=O)N[C@H]5C(C)(C)[C@H](Oc6ccc(C#N)c(Cl)c6)C5(C)C)cn4)CC3)cc2)c2c(sc(C)c2C)-n2c(C)nnc21` [Compound I-92], the GI50 in assay [1] is less than 0.5 µM; in assay [2] it was more than 3 µM; with VCaP cells it was less than 0.5 µM.
On to `Cc1sc2c(c1C)C(c1ccc(Cl)cc1)=N[C@@H](CC(=O)NCCCOCCOC1CCN(c3ncc(C(=O)N[C@H]4C(C)(C)[C@H](Oc5ccc(C#N)c(Cl)c5)C4(C)C)cn3)CC1)c1nnc(C)n1-2` [Compound I-26], for which the GI50 in assay [1] is less than 0.5 µM; in assay [2], 0.5 to 1.5 µM; with VCaP cells, less than 0.5 µM.
For `Cc1sc2c(c1C)C(c1ccc(-c3cn(C4CCN(c5ncc(C(=O)N[C@H]6C(C)(C)[C@H](Oc7ccc(C#N)c(Cl)c7)C6(C)C)cn5)CC4)nn3)cc1)=NC(Cc1ncco1)c1nnc(C)n1-2` (some centres unmarked) [Compound I-483], the GI50 (in assay [1]; in assay [2]; in the assay with VCaP cells) was less than 0.5 µM throughout.
Turning to `CCNC(=O)C[C@@H]1N=C(c2ccc(CCCCCCOC3CCN(c4ncc(C(=O)N[C@H]5C(C)(C)[C@H](Oc6ccc(C#N)c(Cl)c6)C5(C)C)cn4)CC3)cc2)c2c(sc(C)c2C)-n2c(C)nnc21` [Compound I-90], the GI50 was less than 0.5 µM in assay [1], more than 3 µM in assay [2] and more than 3 µM in the assay with VCaP cells.
On to `CCNC(=O)C[C@@H]1N=C(c2ccc(CCCCCOC3CCN(c4ncc(C(=O)N[C@H]5C(C)(C)[C@H](Oc6ccc(C#N)c(Cl)c6)C5(C)C)cn4)CC3)cc2)c2c(sc(C)c2C)-n2c(C)nnc21` [Compound I-89], for which the 50% growth inhibitory concentration (GI50) was less than 0.5 µM in assay [1], 0.5 to 1.5 µM in assay [2] and 1.5 to 3 µM in the assay with VCaP cells.

The values above are taken from patent US20260062422A1 (Halda Therapeutics OpCo, Inc., priority 2022, published 2026).
